Measurements taken from article PMC10759609, “A novel PDPN antagonist peptide CY12-RP2 inhibits melanoma growth via Wnt/β-catenin and modulates the immune cells” (Journal of Experimental & Clinical Cancer Research : CR, 2024).

Columns and labels:
melanoma = conditions: in vitro and in vivo; cited from earlier work
Source text: Therapeutic peptides are a novel and promising type of anti-cancer drug, due to several important advantages over proteins or antibodies: they are molecularly small, easy to synthesize, and capable of penetrating cell membranes; they also have high biological activity, affinity, chemical diversity, and specificity. Phage display technology is a high-throughput screening technique that greatly amplifies the application of directional evolution techniques for antibody and peptide modification screening, and first described in 1985 by Smith. Phage display inserts th ...

[1] = tested on: A875 PDPN overexpression cells; assay: Transwell, PDPN-overexpressing A875 cells; type: cell-based; conditions: A875 with PDPN overexpression
Method: (§1) For invasion assay, matrigel (Corning, New York, USA) was coated on the upper surface of the upper chamber. The upper chamber was filled with DMEM medium containing 2% FBS, while the lower chamber contained a medium supplemented with 20% FBS. In brief, melanoma cells (A375 GFP, A875 GFP, A375 PDPN^−/−, and A875 PDPN^+/+ cells) were seeded in the upper chamber of the transwell plate (Corning, New York, USA) at about 5 × 10^4 cells/well with the medium as described above. For peptide functionality experiments, A375 and A875 cells were seeded in the upper chamber of the transwell plate at a density of 5 × 10^4 cells/well with various peptide concentrations (0 μM, 5 μM, 25 μM). Transwell inserts were fixed using 4% paraformaldehyde after 48 h cell invasion, and crystalline violet was used for staining. The quantities of invading cells were quantified using ImageJ software (NIH).
(§2) To confirm whether PDPN could affect migration and invasion of melanoma cells in wnt/β-catenin signaling pathway-dependent manner, A375 cells with PDPN knockdown were treated with a Wnt/β-catenin signaling pathway agonist (SKL2001) and PDPN overexpression A875 cells were treated with an inhibitor (IWR1). […]

[2] = tested on: A875 PDPN overexpression cells; assay: Wound healing, PDPN-overexpressing A875 cells; type: cell-based; conditions: A875 with PDPN overexpression
Method: (§3) A375 GFP, A875 GFP, A375 PDPN^−/−, and A875 PDPN^+/+ cells were all seeded in 12-well plates at a density of 5 × 10^5 cells/well. When the cells reached 100% confluence the next day, the straight wound was scraped in each cultured well with a 20 µL pipette tip. Then the cells were washed repeatedly with complete DMEM to remove the cellular debris, and the medium was changed to a low serum medium containing 0.05% FBS. The scratch-treated cells were subsequently cultured for an additional indicated time and imaged at 0 h, 12 h, 24 h and 48 h. Quantification of wound closure was accomplished by measuring the distance between the phase contrast images’ anterior edges of the contralateral surfaces using ImageJ software. As for peptide (CY12-RP2) function experiments, images of phase contrast for A375 GFP and A875 GFP cells were captured at 0 h before peptide administration. The cells were then treated with CY12-RP2 (0 μM, 5 μM, 25 μM) for 24 h or 48 h, and then images were acquired again. Handling of the experimental results were carried out as previously described.
as §2

[3] = tested on: EMT in A875 PDPN overexpression cells; assay: Western blot EMT proteins, PDPN-overexpressing A875 cells; type: cell-based
Method: (§4) Melanoma cells were cultured in a 60 mm dish with a complete medium and various peptide concentrations (0 μM, 5 μM, 25 μM). Protein was extracted after cells were cultured or treated for 48 h using protein lysis buffer, separated using a 10% or 15% Bis–Tris PAGE gel (Epizyme Biomedical Technology, Shanghai, China), and transferred onto a PVDF membrane (Thermo Fisher Scientific) according to standard techniques. The Western blots were imaged using Bio-rad Chemidoc MP and quantified using ImageJ software (NIH).
(§5) To confirm whether PDPN could affect migration and invasion of melanoma cells in wnt/β-catenin signaling pathway-dependent manner, A375 cells with PDPN knockdown were treated with a Wnt/β-catenin signaling pathway agonist (SKL2001) and PDPN overexpression A875 cells were treated with an inhibitor (IWR1). […] Furthermore, the levels of EMT positively correlated proteins, including N-cadherin, vimentin and snail were all suppressed, while E-cadherin was increased in A375 cells transfected with LV-shPDPN, and these phenomena were reversed following treatment with SKL2001 (Fig. S2E). In contrast, in the A875 cells, the activation of EMT by PDPN overexpression was blocked by IWR1 (Fig. S2E).

melanoma cells [4] = assay: Wound healing with SKL2001, melanoma cell lines; type: cell-based; conditions: combined with CY12-RP2
Method: as §3, with “The cells were then treated with CY12-RP2 (0 μM, 5 μM, 25 μM) for 24 h or 48 h, and then images were acquired again. Handling of the experimental results were carried out as previously described.” left out
(§6) (A) TUNEL analysis of apoptosis was conducted on orthotopic xenografts tumor sections using fluorescence staining. […] (B) Fluorescence staining of Ki67 was carried out on orthotopic xenograft tumor sections.
(§7) The power field scale bar, 100 μm. (C) Serum His-CY12-RP2 levels of the orthotopic xenografts mice treated by various dosage of CY12-RP2 were measured by His-ELISA kit. […]
(§8) kit. (E) Serum ALT, AST, TG, and γ-GT levels of the orthotopic xenografts model were measured by ELISA. […]

melanoma cells [5] = assay: Transwell invasion with SKL2001, melanoma cell lines; type: cell-based; conditions: combined with CY12-RP2
Method: as §1, with “(NIH). […]” for “(NIH).”
as §6, §7, §8

[6] = tested on: A375 PDPN knockdown cells; assay: Transwell, PDPN-knockdown A375 cells; type: cell-based; conditions: A375 with PDPN knockdown
Method: as §1, §2

[7] = tested on: EMT proteins in A375 LV-shPDPN cells; assay: Western blot EMT proteins, PDPN-knockdown A375 cells; type: cell-based
Method: as §4, §5

[8] = tested on: Wnt/β-catenin signaling pathway; assay: Western blot, EMT and Wnt/β-catenin pathway, melanoma cells; type: cell-based; conditions: combined with CY12-RP2; SKL2001 50 μM; Western blot
Method: as §4
Fig. S4: The inhibition of cells metastasis and invasion by CY12-RP2 can be […]
(A, B) The inhibition of CY12-RP2 on the migration capacity of melanoma cell lines was reversed by SKL2001 (A). Statistical analysis was performed to determine the migrated distance (B). The power field scale bar, 100 μm. (C, D) Effect of CY12-RP2 on the invasive ability of melanoma cell lines were reversed by SKL2001 (C). […]
as §6, §7, §8

[9] = tested on: A375 PDPN knockdown cells; assay: Wound healing, PDPN-knockdown A375 cells; type: cell-based; conditions: A375 with PDPN knockdown
Method: as §3, §2

For “[-CSSRTMHHC-] [peptide screened by C7C phage display library]”, the “melanoma growth and invasion” value (melanoma) is given as “suppress melanoma growth and invasion both in vitro and in vivo”.
With `O=C(Nc1cccc2cccnc12)c1ccc(N2C(=O)[C@@H]3[C@H](C2=O)[C@@H]2C=C[C@H]3C2)cc1` [IWR1] the “increase of invasion mediated by PDPN overexpression” value [1] was “abrogated”, the “promotion of migration by PDPN overexpression” value [2] was “inhibited” and the “activation of EMT by PDPN overexpression” value [3] was “blocked”.
In the case of `O=C(NCCCn1ccnc1)c1cc(-c2ccco2)on1` [SKL2001], the “effect of SKL2001 on CY12-RP2 inhibition of migration” value (melanoma cells [4]) is reported as “significantly reversed”, the “effect of SKL2001 on CY12-RP2 inhibition of invasion” value (melanoma cells [5]) is reported as “significantly reversed” and the “decrease of invasion mediated by PDPN knockdown” value [6] is reported as “abrogated”. The “changes of N-cadherin, vimentin, snail and E-cadherin by LV-shPDPN” value [7] was “reversed”, the “effect of SKL2001 on CY12-RP2 inhibition of EMT and Wnt/β-catenin signaling” value [8] was “significantly reversed” and the “inhibition of migration by PDPN knockdown” value [9] was “abolished”.
